Results reported in ChEMBL document CHEMBL1133305, “Phenyloxazoles and phenylthiazoles as benzamide bioisosteres: synthesis and dopamine receptor binding profiles” (Bioorg Med Chem Lett, 2000).

Experiments:
[1] = target: T1, D(2) dopamine receptor (Homo sapiens, UniProt P14416); assay: In vitro displacement of [3H]spiperone from the recombinant human dopamine receptor D2L stably expressed in CHO cells; format: cell-based
[2] = target: D(3) dopamine receptor (Homo sapiens, UniProt P35462); assay: In vitro displacement of [3H]spiperone from the cloned human dopamine receptor D3 stably expressed in CHO cells; format: cell-based
Sequence of D(3) dopamine receptor (P35462 whole entry): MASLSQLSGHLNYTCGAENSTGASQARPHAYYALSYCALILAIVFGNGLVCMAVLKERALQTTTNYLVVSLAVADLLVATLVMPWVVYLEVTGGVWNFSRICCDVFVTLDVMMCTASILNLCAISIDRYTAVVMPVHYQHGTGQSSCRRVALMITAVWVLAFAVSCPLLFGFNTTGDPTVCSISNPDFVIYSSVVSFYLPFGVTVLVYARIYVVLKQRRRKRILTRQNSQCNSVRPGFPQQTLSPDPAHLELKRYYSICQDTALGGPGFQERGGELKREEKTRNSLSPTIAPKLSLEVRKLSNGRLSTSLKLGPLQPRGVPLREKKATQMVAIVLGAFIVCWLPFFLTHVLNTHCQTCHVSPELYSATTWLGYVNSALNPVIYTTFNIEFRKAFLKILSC

[3] = target: T2, D(4) dopamine receptor (Homo sapiens, UniProt P21917); assay: In vitro displacement of [3H]spiperone from the recombinant human dopamine receptor D4 expressed in CHO cells; format: cell-based
T2 sequence (P21917 whole entry): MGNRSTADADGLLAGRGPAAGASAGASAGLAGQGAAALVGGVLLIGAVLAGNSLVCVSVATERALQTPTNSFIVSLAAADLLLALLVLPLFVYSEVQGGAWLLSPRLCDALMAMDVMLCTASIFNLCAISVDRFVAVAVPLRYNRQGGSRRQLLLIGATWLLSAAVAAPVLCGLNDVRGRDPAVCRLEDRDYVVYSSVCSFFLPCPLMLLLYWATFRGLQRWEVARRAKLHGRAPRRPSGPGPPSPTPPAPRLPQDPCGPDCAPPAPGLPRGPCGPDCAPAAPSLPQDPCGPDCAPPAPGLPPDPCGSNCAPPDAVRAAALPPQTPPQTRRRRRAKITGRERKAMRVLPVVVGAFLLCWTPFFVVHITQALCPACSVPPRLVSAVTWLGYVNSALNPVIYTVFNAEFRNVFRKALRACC

[4] = target: D(1A) dopamine receptor (Bos taurus, UniProt Q95136); assay: In vitro displacement of [3H]- SCH 23390 from the dopamine receptor D1 of bovine striatal membrane
Sequence of D(1A) dopamine receptor (Q95136 whole entry): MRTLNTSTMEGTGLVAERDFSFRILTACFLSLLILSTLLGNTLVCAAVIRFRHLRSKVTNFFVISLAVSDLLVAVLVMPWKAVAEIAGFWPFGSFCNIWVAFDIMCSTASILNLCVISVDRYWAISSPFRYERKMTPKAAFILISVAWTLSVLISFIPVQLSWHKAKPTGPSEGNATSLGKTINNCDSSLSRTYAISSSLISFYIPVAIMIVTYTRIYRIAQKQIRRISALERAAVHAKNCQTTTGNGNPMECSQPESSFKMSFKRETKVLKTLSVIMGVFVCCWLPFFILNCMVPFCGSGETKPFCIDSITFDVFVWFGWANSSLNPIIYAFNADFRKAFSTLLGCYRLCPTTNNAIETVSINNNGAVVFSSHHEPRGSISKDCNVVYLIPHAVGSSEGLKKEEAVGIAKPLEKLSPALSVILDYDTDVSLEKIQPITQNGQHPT

[5] = target: T1, D(2) dopamine receptor; assay: In vitro displacement of [3H]spiperone from the recombinant human dopamine receptor D2 short form expressed in CHO cells; format: cell-based

T1 sequence (P14416 whole entry): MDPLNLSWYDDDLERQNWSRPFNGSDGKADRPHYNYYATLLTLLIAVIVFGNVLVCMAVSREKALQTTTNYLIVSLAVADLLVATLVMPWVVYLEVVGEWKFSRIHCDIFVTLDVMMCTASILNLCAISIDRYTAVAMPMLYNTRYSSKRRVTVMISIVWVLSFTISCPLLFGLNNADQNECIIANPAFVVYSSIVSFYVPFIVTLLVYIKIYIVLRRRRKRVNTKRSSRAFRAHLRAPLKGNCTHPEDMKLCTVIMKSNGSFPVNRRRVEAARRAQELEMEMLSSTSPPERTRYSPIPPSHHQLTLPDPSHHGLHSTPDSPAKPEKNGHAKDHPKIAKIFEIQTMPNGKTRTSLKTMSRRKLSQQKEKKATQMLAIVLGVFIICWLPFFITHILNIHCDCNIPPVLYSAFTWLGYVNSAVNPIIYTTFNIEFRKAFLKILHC

Row | Ki [1] | Ki [2] | Ki [3] | Ki [4] | Ki [5] | Ki ([3]; cho) | Compound
1 | 185 nM | 220 nM | 150 nM | 4000 nM | 92 nM |  | COc1ccc(Br)cc1-c1nc(CNC[C@@H]2CCN(Cc3ccccc3)C2)cs1 [listing 1 of 2 here]
2 | 210 nM | 640 nM | 370 nM | 10500 nM | 85 nM |  | COc1ccc(Br)cc1-c1nc(CN2CCN(Cc3ccccc3)CC2)cs1
3 | 3000 nM | 3950 nM | 250 nM | 11500 nM | 1750 nM |  | c1ccc(-c2nc(CN3CCN(c4ccccc4)CC3)co2)cc1
4 | 195 nM | 205 nM | 400 nM | 4500 nM | 105 nM |  | COc1ccc(Br)cc1-c1nc(CNC2CCN(Cc3ccccc3)CC2)cs1
5 | 6650 nM | 7600 nM | 580 nM | 17500 nM | 4400 nM |  | Oc1ccc(Br)cc1-c1nc(CN2CCN(c3ccccc3)CC2)co1
6 | 420 nM | 115 nM | 170 nM | 4950 nM | 280 nM |  | COc1ccc(Br)cc1-c1nc(CNC[C@@H]2CCN(Cc3ccccc3)C2)cs1 [listing 2 of 2 here]
7 | 690 nM | 660 nM | 370 nM | 4850 nM | 330 nM |  | COc1ccc(Br)cc1-c1nc(CN2CCN(c3ccccc3)CC2)co1
8 | 610 nM | 1190 nM | 590 nM | 1250 nM | 440 nM |  | COc1ccc(Br)cc1-c1nc(CN2CCN(c3ccccc3)CC2)cs1
9 | 2300 nM | 2050 nM | 450 nM | 19500 nM | 1060 nM |  | c1ccc(-c2nc(CN3CCN(c4ccccc4)CC3)cs2)cc1
10 | 1500 nM | 1050 nM | 710 nM | 15500 nM | 790 nM |  | COc1ccc(Br)cc1-c1nc(CN2CCN(Cc3ccccc3)CC2)co1

More lines, now with the values behind:

Row | Compound | Ki [1] | Ki [2] | Ki [3] | Ki [4] | Ki [5] | Ki ([3]; cho)
11 | COc1ccc(Br)cc1-c1nc(CNC[C@@H]2CCN(Cc3ccccc3)C2)co1 [listing 1 of 2 here] | 510 nM | 83 nM | 20 nM | 6750 nM | 210 nM | 
12 | COc1ccc(Br)cc1-c1nc(CN[C@@H]2CCN(Cc3ccccc3)C2)co1 [listing 1 of 2 here] | 8250 nM | 1850 nM | 510 nM | 16000 nM | 6600 nM | 
13 | COc1ccc(Br)cc1-c1nc(CNCCC2CCN(Cc3ccccc3)C2)co1 (stereo not given) | 510 nM | 75 nM | 150 nM | 6600 nM | 310 nM | 
14 | COc1ccc(Br)cc1-c1nc(CNC2CCN(Cc3ccccc3)CC2)co1 | 940 nM | 580 nM | 390 nM | 12500 nM | 630 nM | 
15 | c1ccc(CN2CCC(NCc3csc(-c4ccccc4)n3)CC2)cc1 | 23000 nM | 2300 nM | 53 nM | 6800 nM | 13500 nM | 
16 | c1ccc(CN2CCC(NCc3coc(-c4ccccc4)n3)CC2)cc1 | 14000 nM | 6100 nM | 350 nM | 30000 nM | 8650 nM | 
17 | COc1c(-c2nc(CNC[C@@H]3CCN(Cc4ccccc4)C3)co2)cc(Br)c2ccccc12 | 45500 nM | 5850 nM | 15500 nM | 100000 nM | 17500 nM | 
18 | COc1ccc(Br)cc1-c1nc(CNC[C@@H]2CCN(Cc3ccccc3)C2)co1 [listing 2 of 2 here] | 320 nM | 65 nM | 11 nM | 3500 nM | 245 nM | 
19 | c1ccc(CN2CCN(Cc3coc(-c4ccccc4)n3)CC2)cc1 | 27500 nM | 8400 nM | 1450 nM | 72000 nM | 21500 nM | 
20 | c1ccc(CN2CCN(Cc3csc(-c4ccccc4)n3)CC2)cc1 | 28000 nM | 5250 nM | 590 nM | 9200 nM | 19500 nM | 
21 | COc1ccc(Br)cc1-c1ncc(CNC[C@@H]2CCN(Cc3ccccc3)C2)[nH]1 | 6250 nM | 1300 nM | 1110 nM | 8900 nM | 2750 nM | 
22 | COc1ccc(Br)cc1-c1nc(CN(C)C[C@@H]2CCN(Cc3ccccc3)C2)co1 | 3800 nM | 1200 nM | 650 nM | 5450 nM | 3250 nM | 
23 | COc1ccc(Br)cc1-c1nc(CN[C@@H]2CCN(Cc3ccccc3)C2)co1 [listing 2 of 2 here] | 2450 nM | 1700 nM | 39 nM | 8000 nM | 2000 nM | 
24 | COc1ccc(Br)cc1-c1nc(CNCC[C@@H]2CCN(Cc3ccccc3)C2)co1 | 1070 nM | 120 nM | 170 nM | 8950 nM | 1100 nM | 
25 | c1ccc(CN2CC[C@@H](CNCc3csc(-c4ccccc4)n3)C2)cc1 (stereo in doubt) | 7950 nM | 880 nM |  | 13500 nM | 6400 nM | 390 nM
26 | c1ccc(CN2CC[C@@H](CNCc3csc(-c4ccccc4)n3)C2)cc1 (stereo in doubt; 4q) | 7900 nM | 660 nM | 390 nM | 8850 nM | 5050 nM | 
